Assays:
human P2X4 receptor = target: T1, human P2X4 receptor (Homo sapiens, UniProt Q99571); test: P2X4 receptor antagonist activity, ATP-induced intracellular calcium (Fura-2 AM) in 1321N1 cells stably expressing human P2X4 receptor; format: cell-based; conditions: among human, mouse, and rat
T1 sequence (Q99571 1-388): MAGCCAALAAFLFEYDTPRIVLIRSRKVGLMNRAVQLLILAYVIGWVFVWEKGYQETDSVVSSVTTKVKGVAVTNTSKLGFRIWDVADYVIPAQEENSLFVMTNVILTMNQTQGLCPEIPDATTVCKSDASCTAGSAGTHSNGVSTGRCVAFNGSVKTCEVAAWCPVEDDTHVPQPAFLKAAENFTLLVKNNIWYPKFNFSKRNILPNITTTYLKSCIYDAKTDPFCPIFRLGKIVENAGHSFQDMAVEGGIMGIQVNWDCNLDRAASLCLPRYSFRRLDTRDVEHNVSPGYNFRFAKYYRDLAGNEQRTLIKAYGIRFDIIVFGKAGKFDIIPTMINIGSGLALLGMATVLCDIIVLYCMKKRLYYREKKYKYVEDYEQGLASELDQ

Mouse P2X4 = target: T2, Mouse P2X4 (Mus musculus, UniProt Q9JJX6); test: P2X receptor family selectivity, calcium imaging method using cells expressing the receptor; format: cell-based
T2 construct: host or cells: cells expressing the receptor
T2 sequence (Q9JJX6 1-388): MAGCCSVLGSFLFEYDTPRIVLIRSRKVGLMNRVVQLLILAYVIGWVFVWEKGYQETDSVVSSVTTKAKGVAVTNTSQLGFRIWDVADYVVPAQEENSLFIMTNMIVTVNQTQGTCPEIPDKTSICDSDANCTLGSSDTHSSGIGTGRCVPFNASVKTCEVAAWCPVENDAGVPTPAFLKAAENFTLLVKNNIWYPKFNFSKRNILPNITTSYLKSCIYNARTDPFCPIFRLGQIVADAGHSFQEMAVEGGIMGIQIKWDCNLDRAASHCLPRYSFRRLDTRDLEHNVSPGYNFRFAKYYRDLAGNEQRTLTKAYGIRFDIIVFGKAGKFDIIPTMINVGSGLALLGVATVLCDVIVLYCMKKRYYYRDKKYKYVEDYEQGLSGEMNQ
Source text: (§1) The inhibitory activities of the compound against the rat and mouse P2X4 receptors were also confirmed.

Rat P2X4 = target: T3, Rat P2X4 (Rattus norvegicus, UniProt P51577); test: as above; format: cell-based
T3 construct: host or cells: cells expressing the receptor
T3 sequence (P51577 1-388): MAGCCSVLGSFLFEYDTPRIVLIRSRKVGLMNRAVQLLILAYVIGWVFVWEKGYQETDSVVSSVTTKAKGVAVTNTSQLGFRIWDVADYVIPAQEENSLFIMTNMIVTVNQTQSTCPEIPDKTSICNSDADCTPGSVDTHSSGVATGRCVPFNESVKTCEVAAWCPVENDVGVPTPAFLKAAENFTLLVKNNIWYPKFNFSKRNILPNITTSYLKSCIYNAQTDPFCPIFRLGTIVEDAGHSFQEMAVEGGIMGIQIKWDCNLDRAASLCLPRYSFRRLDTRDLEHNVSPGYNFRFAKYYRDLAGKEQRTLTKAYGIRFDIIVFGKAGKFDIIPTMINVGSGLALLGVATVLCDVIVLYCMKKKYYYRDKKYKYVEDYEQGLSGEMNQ
Source text: as §1

Rat P2X3 = target: T4, Rat P2X3 (Rattus norvegicus, UniProt P49654); test: as above; format: cell-based
T4 construct: host or cells: cells expressing the receptor
T4 sequence (P49654 1-397): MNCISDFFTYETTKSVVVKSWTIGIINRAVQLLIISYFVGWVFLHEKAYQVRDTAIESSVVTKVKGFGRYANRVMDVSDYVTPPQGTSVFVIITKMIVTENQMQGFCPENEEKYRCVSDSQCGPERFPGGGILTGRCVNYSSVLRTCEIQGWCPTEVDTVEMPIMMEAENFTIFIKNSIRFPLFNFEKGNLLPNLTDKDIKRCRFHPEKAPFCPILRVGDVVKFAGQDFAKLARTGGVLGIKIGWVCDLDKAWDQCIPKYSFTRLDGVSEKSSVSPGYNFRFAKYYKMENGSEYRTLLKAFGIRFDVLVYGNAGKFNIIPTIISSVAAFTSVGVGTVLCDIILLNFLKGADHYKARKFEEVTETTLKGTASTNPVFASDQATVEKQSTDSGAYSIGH

Rat P2X7 = target: T5, Rat P2X7 (Rattus norvegicus, UniProt Q64663); test: as above; format: cell-based
T5 construct: host or cells: cells expressing the receptor
T5 sequence (Q64663 1-595): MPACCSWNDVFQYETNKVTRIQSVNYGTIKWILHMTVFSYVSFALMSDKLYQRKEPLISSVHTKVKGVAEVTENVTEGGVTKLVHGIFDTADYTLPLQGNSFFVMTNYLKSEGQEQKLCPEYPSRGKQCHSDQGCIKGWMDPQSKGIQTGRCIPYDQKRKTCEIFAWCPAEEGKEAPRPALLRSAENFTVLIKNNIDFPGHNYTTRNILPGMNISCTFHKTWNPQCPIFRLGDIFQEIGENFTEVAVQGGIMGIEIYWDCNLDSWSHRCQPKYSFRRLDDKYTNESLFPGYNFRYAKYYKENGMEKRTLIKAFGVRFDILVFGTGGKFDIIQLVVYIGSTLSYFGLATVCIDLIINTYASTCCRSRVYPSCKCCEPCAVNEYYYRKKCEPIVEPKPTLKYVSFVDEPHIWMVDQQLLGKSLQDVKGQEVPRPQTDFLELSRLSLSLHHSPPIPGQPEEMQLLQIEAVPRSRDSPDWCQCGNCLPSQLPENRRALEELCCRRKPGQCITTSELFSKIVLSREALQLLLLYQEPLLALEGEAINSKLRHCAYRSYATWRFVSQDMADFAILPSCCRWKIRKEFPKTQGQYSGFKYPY

Human P2X7 = target: T6, Human P2X7 (Homo sapiens, UniProt Q99572); test: as above; format: cell-based
T6 construct: host or cells: cells expressing the receptor
T6 sequence (Q99572 1-595): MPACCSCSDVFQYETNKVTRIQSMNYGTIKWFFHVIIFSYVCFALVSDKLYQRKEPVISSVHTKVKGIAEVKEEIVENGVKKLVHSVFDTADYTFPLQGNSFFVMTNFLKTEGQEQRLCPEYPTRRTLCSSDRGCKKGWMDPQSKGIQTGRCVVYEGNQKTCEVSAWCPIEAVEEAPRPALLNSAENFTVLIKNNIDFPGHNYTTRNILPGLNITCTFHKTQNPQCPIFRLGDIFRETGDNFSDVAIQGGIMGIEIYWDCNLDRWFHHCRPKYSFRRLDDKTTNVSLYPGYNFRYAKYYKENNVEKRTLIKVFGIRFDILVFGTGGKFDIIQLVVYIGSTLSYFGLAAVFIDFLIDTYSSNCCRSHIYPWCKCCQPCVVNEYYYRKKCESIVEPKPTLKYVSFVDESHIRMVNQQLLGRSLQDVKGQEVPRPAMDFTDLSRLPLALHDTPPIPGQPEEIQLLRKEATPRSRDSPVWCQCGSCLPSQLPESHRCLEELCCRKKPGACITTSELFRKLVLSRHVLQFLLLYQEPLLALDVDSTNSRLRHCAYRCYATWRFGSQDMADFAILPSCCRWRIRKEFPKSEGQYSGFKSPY

[1] = system: rat neuropathic pain model (modified Chung model); test: Analgesic activity, rat neuropathic pain model (modified Chung model), von Frey filament test; format: in vivo
Procedure: The analgesic activity of the compound of the present invention was measured by the following method.
Rat neuropathic pain model (modified Chung model) was prepared according to the method of Kim, S. H., Chung, J. M. et al. (An experimental model for peripheral neuropathy produced by segmental spinal nerve ligation in the rat, Pain, 50, 355-363 (1992)). More specifically; under isoflurane anesthesia, back hair of rats was extensively shaved, the shaved parts were wiped with rubbing alcohol, the rats were fixed in the prone position on a heating pad, and the skins were cut and opened along the dorsal median line on the upper and lower sides of the sacroiliac bone. The left lateral paravertebral muscle was separated in the sacral region, and then the ligament was separated. […]
The pain threshold (paw withdrawal threshold (g)) was measured by stimulating the soles of rats with each of seven von Frey filaments (Stoelting Co., TOUCH-TEST SENSORY EVALUATOR) that gave different stimulation strengths, and determining presence or absence of withdrawal response. The 50% threshold was calculated according to the up down method with reference to the method of Chaplan et al. (Chaplan S R, Bach F W, Pogrel J W, Chung J M, Yaksh T L: Quantitative assessment of tactile allodynia in the rat paw, J. Neurosci. Method, 53:55-63 (1994)). […]

Which results are given for `CN(C)c1ncccc1C(=O)Nc1ccc(C2=NCC(=O)Nc3c2ccc2ccccc32)cc1.Cl.Cl` [Example 15, 2-(Dimethylamino)-N-[4-(2-oxo-2,3-dihydro-1H-naphtho[1,2-e][1,4]diazepin-5-yl)phenyl]nicotinamide dihydrochloride]?
Species-specific difference of the P2X4 receptor inhibitory activity (human P2X4 receptor): not observed; IC50 (Mouse P2X4): 0.52 µM; IC50 (Rat P2X4): 1.3 µM; IC50 (Rat P2X3): 6.8 µM; IC50 (Rat P2X7): > 30 µM; IC50 (Human P2X7): > 30 µM; pain threshold of the affected limb (von Frey filament test) ([1]; rat modified Chung model, 30 mg/kg orally twice a day (60 mg/kg/day) for 14 days from day 9 after operation, measured 3 hours after administration, vs. vehicle group): increased; analgesic activity ([1]; rat neuropathic pain model (modified Chung model)): superior analgesic activity

From patent publication US10472333B2, “P2X4 receptor antagonist” (NIPPON CHEMIPHAR CO., LTD., priority 2013, dated 2019)
